Like-named read-outs stand apart in the source and are kept apart here.
Tests used:
[1] = in PBS buffer, reference value; cited from earlier work
[2] = system: T24 bladder cancer xenografts; conditions: 100 μmol/kg (0.1 mmol/kg gadolinium), tail vein injection
Description: MRI signal enhancement was assessed by performing in vivo MRI measurements in three BALB/c nude mice bearing T24 bladder cancer xenografts. Three tumor models were developed by subcutaneous injection of T24 bladder cancer cells. […] MR images were acquired before and after tail vein injection of 200 μl of each sample at various time points.
MR images were acquired before and after 200 μL tail vein injection of each subject at various times.

[3] = T1 and T2 relaxivity measurements; type: physicochemical
Description: t1 relaxivity of the proposed MR-available PDT agent—NLPor-Gd-L1Rn (n=1 to 3) was measured. […] Without wishing to be bound by theory, this difference in relaxivity could be due to the different coordinative numbers of them: for NLPor-Gd-L1Rn, (n=1 to 3) the coordinative protection for the central Gd^3+ ion is better than that of Gd-DOTA, so the Gd^3+ ion in NLPor-Gd-L1Rn (n=1 to 3) has less chance to exchange with water protons compared to Gd-DOTA. The responsive t1 of NLPor-Gd-L1Rn (n=1-3) have been evaluated with the addition of different concentrations of αvβ3 integrin. […] (FIG. 6). When the αvβ3 integrin (targeting) binding might readily interact with two molecules and affect t1 relaxivity from 2nd or outer coordination spheres. The t1 relaxivity of NLPor-Gd-L1R3 is enhanced from 0.2847 mM^−1s^−1 to 3.225 mM^−1s^−1 with the addition of αvβ3 integrin.
t1 relaxivity of the proposed MR-available PDT agent—M-NLPor-Cyc-L2An (n=1 or 2) was measured. […]
The absorption and emission spectra of Zn-NLPorB2-Cyc-Gd-L2A2 and its precursor without Gd, Zn-NLPorB2-Cyc-L2A2 were measured in aqueous solution (FIGS. 54b and 54c). […] The singlet oxygen quantum yields (ΦΔ) of Zn-NLPorB2-Cyc-Gd-L2A2 and Zn-NLPorB2-Cyc-L2A2 were measured in CHCl3 and calculated by comparing to a reference compound tetraphenylporphyrin, H2TPP, (ΦΔ=0.55 in CHCl3). […]

Row | SMILES | singlet oxygen quantum yield of reference (ΦRB) [1] | post-injection MRI signal enhancement [2] | post-injection MRI signal enhancement ([2]; listed as GdDOTA) | T1 relaxivity ([3]; 1.4T in water with 3% DMSO, 37° C.) [mM⁻¹ s⁻¹] | T1 relaxivity (r1) ([3]; 1.5 T in water (3% DMSO)) [mM⁻¹ s⁻¹]
1 | O=C1OC2(c3cc(I)c(O)c(I)c3Oc3c2cc(I)c(O)c3I)c2c(Cl)c(Cl)c(Cl)c(Cl)c21 [RB, Rose Bengal] | 0.75 |  |  |  | 
2 | O=C([O-])CN1CCN(CC(=O)[O-])CCN(CC(=O)O)CCN(CC(=O)[O-])CC1.[Gd+3] [Gd-DOTA, reference compound] |  | weak post-injection signal enhancement | Weak post injection signal enhancement | 2.92 | 2.92
